Experimental data reported in US20170260178A1 (SPERO GYRASE, INC., priority 2012, published 2017).
Converted amounts (≈) assume the structure as drawn.

How the values were obtained:
[1] = tested on: S. aureus (ATCC 29213); assay: Bacterial assay: MIC against S. aureus; format: cell-based, Staphylococcus aureus; conditions: Staphylococcus aureus, ATCC29213, read-out: minimal inhibitory concentration (MIC)
[2] = tested on: S. pyogenes (ATCC 51339); assay: Bacterial assay: MIC against S. pyogenes; format: cell-based, Streptococcus pyogenes; conditions: Streptococcus pyogenes, ATCC51339, read-out: minimal inhibitory concentration (MIC)
[3] = tested on: H. influenzae (ATCC 49247); assay: Bacterial assay: MIC against H. influenzae; format: cell-based; conditions: Haemophilus influenzae, ATCC49247; H. influenzae ATCC 49247; read-out: minimal inhibitory concentration (MIC)

SMILES	MIC [1]	MIC [2]	MIC [3]
CCNC(=O)Nc1nc2cc(-c3cnc([C@@H](O)[C@H](C)O)nc3)cc(-c3ccccn3)c2s1 (relative stereo) [Compound 7, 1-[5-[2-[(1S*,2R*)-1,2-dihydroxypropyl]pyrimidin-5-yl]-7-(2-pyridyl)-1,3-benzothiazol-2-yl]-3-ethyl-urea]	≤ 1 µg/mL	≤ 1 µg/mL	≤ 2 µg/mL
CCNC(=O)Nc1nc2cc(-c3cnc([C@@]4(O)CCOC[C@H]4O)nc3)cc(-c3ccccn3)c2s1 (relative stereo) [Compound 8, 1-[5-[2-[(3R*,4S*)-3,4-dihydroxytetrahydropyran-4-yl]pyrimidin-5-yl]-7-(2-pyridyl)-1,3-benzothiazol-2-yl]-3-ethyl-urea]	≤ 1 µg/mL	≤ 1 µg/mL	≤ 2 µg/mL
CCNC(=O)Nc1nc2cc(-c3cnc([C@@H](O)[C@@H](C)O)nc3)cc(-c3ccccn3)c2s1 (relative stereo) [Compound 118, 1-[5-[2-[(1R*,2R*)-1,2-dihydroxypropyl]pyrimidin-5-yl]-7-(2-pyridyl)-1,3-benzothiazol-2-yl]-3-ethyl-urea]	≤ 1 µg/mL	≤ 1 µg/mL	≤ 2 µg/mL
CCNC(=O)Nc1nc2cc(-c3cnc([C@@H](O)[C@H](O)C(F)F)nc3)cc(-c3ccccn3)c2s1 (relative stereo) [Compound 130, 1-[5-[2-[(1R*,2S*)-3,3-difluoro-1,2-dihydroxy-propyl]pyrimidin-5-yl]-7-(2-pyridyl)-1,3-benzothiazol-2-yl]-3-ethyl-urea]	≤ 1 µg/mL	≤ 1 µg/mL	≤ 2 µg/mL
CCNC(=O)Nc1nc2cc(-c3cnc([C@@H](O)[C@H](O)C(F)(F)F)nc3)cc(-c3ccccn3)c2s1 (relative stereo) [Compound 131, 1-ethyl-3-[7-(2-pyridyl)-5-[2-[(1R*,2S*)-3,3,3-trifluoro-1,2-dihydroxy-propyl]pyrimidin-5-yl]-1,3-benzothiazol-2-yl]urea]	≤ 1 µg/mL	≤ 1 µg/mL	≤ 2 µg/mL
CCNC(=O)Nc1nc2cc(-c3cnc(C(C)O)cn3)cc(-c3ccccn3)c2s1 (stereo not drawn) [Compound 6, 1-ethyl-3-[5-[5-(1-hydroxyethyl)pyrazin-2-yl]-7-(2-pyridyl)-1,3-benzothiazol-2-yl]urea]	≤ 1 µg/mL	≤ 1 µg/mL	≤ 2 µg/mL
CCNC(=O)Nc1nc2cc(-c3cnc(C(C)(C)O)nc3)cc(-c3ncccn3)c2s1 [Compound 10, 1-ethyl-3-[5-[2-(1-hydroxy-1-methyl-ethyl)pyrimidin-5-yl]-7-pyrimidin-2-yl-1,3-benzothiazol-2-yl]urea]	≤ 1 µg/mL	≤ 1 µg/mL	≤ 2 µg/mL
CCNC(=O)Nc1nc2cc(-c3cnc(C(C)O)nc3)cc(-c3cc(CSC)ccn3)c2s1 (stereo not drawn) [Compound 15, 1-ethyl-3-[5-[2-(1-hydroxyethyl)pyrimidin-5-yl]-7-[4-(methylsulfanylmethyl)-2-pyridyl]-1,3-benzothiazol-2-yl]urea]	≤ 1 µg/mL	≤ 1 µg/mL	≤ 2 µg/mL
CCNC(=O)Nc1nc2cc(-c3cnc([C@@H](C)O)nc3)cc(-c3ccccn3)c2s1 [Compound 22, 1-ethyl-3-[5-[2-[(1R)-1-hydroxyethyl]pyrimidin-5-yl]-7-(2-pyridyl)-1,3-benzothiazol-2-yl]urea]	≤ 1 µg/mL	≤ 1 µg/mL	≤ 2 µg/mL
CCNC(=O)Nc1nc2cc(-c3cnc([C@H](C)O)nc3)cc(-c3ccccn3)c2s1 [Compound 23, 1-ethyl-3-[5-[2-[(1S)-1-hydroxyethyl]pyrimidin-5-yl]-7-(2-pyridyl)-1,3-benzothiazol-2-yl]urea]	≤ 1 µg/mL	≤ 1 µg/mL	≤ 2 µg/mL
CCNC(=O)Nc1nc2cc(-c3ccc(C(C)(C)O)nc3)cc(-c3ccccn3)c2s1 [Compound 27, 1-ethyl-3-[5-[6-(1-hydroxy-1-methyl-ethyl)-3-pyridyl]-7-(2-pyridyl)-1,3-benzothiazol-2-yl]urea]	≤ 1 µg/mL	≤ 1 µg/mL	≤ 2 µg/mL
CCNC(=O)Nc1nc2cc(-c3cnc(C(C)(C)O)nc3)cc(-c3cc(CN4CCOCC4)ccn3)c2s1 [Compound 28, 1-ethyl-3-[5-[2-(1-hydroxy-1-methyl-ethyl)pyrimidin-5-yl]-7-[4-(morpholinomethyl)-2-pyridyl]-1,3-benzothiazol-2-yl]urea]	≤ 1 µg/mL	≤ 1 µg/mL	≤ 2 µg/mL
CCNC(=O)Nc1nc2cc(-c3cnc(C(C)(C)O)nc3)cc(-c3cc(CN4CC(O)C4)ccn3)c2s1 [Compound 30, 1-ethyl-3-[7-[4-[(3-hydroxyazetidin-1-yl)methyl]-2-pyridyl]-5-[2-(1-hydroxy-1-methyl-ethyl)pyrimidin-5-yl]-1,3-benzothiazol-2-yl]urea]	≤ 1 µg/mL	≤ 1 µg/mL	≤ 2 µg/mL
CCNC(=O)Nc1nc2cc(-c3cnc(C(C)(C)O)nc3)cc(-c3cc(CN4CC(OC)C4)ccn3)c2s1 [Compound 31, 1-ethyl-3-[5-[2-(1-hydroxy-1-methyl-ethyl)pyrimidin-5-yl]-7-[4-[(3-methoxyazetidin-1-yl)methyl]-2-pyridyl]-1,3-benzothiazol-2-yl]urea]	≤ 1 µg/mL	≤ 1 µg/mL	≤ 2 µg/mL
CCNC(=O)Nc1nc2cc(-c3cnc(C(C)(C)O)nc3)cc(-c3cc(OCCN4CCOCC4)ccn3)c2s1 [Compound 32, 1-ethyl-3-[5-[2-(1-hydroxy-1-methyl-ethyl)pyrimidin-5-yl]-7-[4-(2-morpholinoethoxy)-2-pyridyl]-1,3-benzothiazol-2-yl]urea]	≤ 1 µg/mL	≤ 1 µg/mL	≤ 2 µg/mL
CCNC(=O)Nc1nc2cc(-c3cnc(C(C)(C)O)nc3)cc(-c3cc(CN4CC[C@H](F)C4)ccn3)c2s1 [Compound 35, 1-ethyl-3-[7-[4-[[(3S)-3-fluoropyrrolidin-1-yl]methyl]-2-pyridyl]-5-[2-(1-hydroxy-1-methyl-ethyl)pyrimidin-5-yl]-1,3-benzothiazol-2-yl]urea]	≤ 1 µg/mL	≤ 1 µg/mL	≤ 2 µg/mL
CCNC(=O)Nc1nc2cc(-c3cnc(C(C)(C)O)nc3)cc(-c3cc(CN4CC[C@@H](F)C4)ccn3)c2s1 [Compound 36, 1-ethyl-3-[7-[4-[[(3R)-3-fluoropyrrolidin-1-yl]methyl]-2-pyridyl]-5-[2-(1-hydroxy-1-methyl-ethyl)pyrimidin-5-yl]-1,3-benzothiazol-2-yl]urea]	≤ 1 µg/mL	≤ 1 µg/mL	≤ 2 µg/mL
CCNC(=O)Nc1nc2cc(-c3cnc(C(C)(C)O)nc3)cc(-c3cc(OCCCN4CCOCC4)ccn3)c2s1 [Compound 38, 1-ethyl-3-[5-[2-(1-hydroxy-1-methyl-ethyl)pyrimidin-5-yl]-7-[4-(3-morpholinopropoxy)-2-pyridyl]-1,3-benzothiazol-2-yl]urea]	≤ 1 µg/mL	≤ 1 µg/mL	≤ 2 µg/mL
CCNC(=O)Nc1nc2cc(-c3cnc(C(C)(C)O)nc3)cc(-c3cnccn3)c2s1 [Compound 39, 1-ethyl-3-[5-[2-(1-hydroxy-1-methyl-ethyl)pyrimidin-5-yl]-7-pyrazin-2-yl-1,3-benzothiazol-2-yl]urea]	≤ 1 µg/mL	≤ 1 µg/mL	≤ 2 µg/mL
CCNC(=O)Nc1nc2cc(-c3cnc(C(O)CO)nc3)cc(-c3ccccn3)c2s1 (stereo not drawn) [Compound 40, 1-[5-[2-(1,2-dihydroxyethyl)pyrimidin-5-yl]-7-(2-pyridyl)-1,3-benzothiazol-2-yl]-3-ethyl-urea]	≤ 1 µg/mL	≤ 1 µg/mL	≤ 2 µg/mL
CCNC(=O)Nc1nc2cc(-c3cnc(C(C)(C)O)nc3)cc(-c3cc(C)ncn3)c2s1 [Compound 43, 1-ethyl-3-[5-[2-(1-hydroxy-1-methyl-ethyl)pyrimidin-5-yl]-7-(6-methylpyrimidin-4-yl)-1,3-benzothiazol-2-yl]urea]	≤ 1 µg/mL	≤ 1 µg/mL	≤ 2 µg/mL
CCNC(=O)Nc1nc2cc(-c3cnc(C(C)(C)O)nc3)c(OCc3ccc(OC)c(OC)c3)cc2s1 [Compound 192, 1-[6-[(3,4-dimethoxyphenyl)methoxy]-5-[2-(1-hydroxy-1-methyl-ethyl)pyrimidin-5-yl]-1,3-benzothiazol-2-yl]-3-ethyl-urea]	≤ 1 µg/mL	≤ 1 µg/mL	–
CCNC(=O)Nc1nc2cc(-c3cnc(C(C)O)nc3)c(OCC3CCCO3)cc2s1 (stereo not drawn) [Compound 193, 1-ethyl-3-[5-[2-[1-hydroxyethyl]pyrimidin-5-yl]-6-(tetrahydrofuran-2-ylmethoxy)-1,3-benzothiazol-2-yl]urea]	≤ 1 µg/mL	2 µg/mL (≈ 4.51 µM)	–
CCNC(=O)Nc1nc2cc(-c3cncc(C(C)O)c3)cc(-c3ccccn3)c2s1 (stereo not drawn) [Compound 197, 1-ethyl-3-[5-[5-(1-hydroxyethyl)-3-pyridyl]-7-(2-pyridyl)-1,3-benzothiazol-2-yl]urea]	≤ 1 µg/mL	≤ 1 µg/mL	–
[2H]C1([2H])OC([2H])([2H])C([2H])([2H])N(Cc2ccnc(-c3cc(-c4cnc(C(C)(C)O)nc4)cc4nc(NC(=O)NCC)sc34)c2)C1([2H])[2H] [Compound 198, 1-ethyl-3-[5-[2-(1-hydroxy-1-methyl-ethyl)pyrimidin-5-yl]-7-[4-[(2,2,3,3,5,5,6,6-octadeuteriomorpholin-4-yl)methyl]-2-pyridyl]-1,3-benzothiazol-2-yl]urea]	≤ 1 µg/mL	–	≤ 2 µg/mL
CCNC(=O)Nc1nc2cc(-c3cnc(C(C)(C)O)nc3)c(OCCN3CCOCC3)cc2s1 [Compound 199, 1-ethyl-3-[5-[2-(1-hydroxy-1-methyl-ethyl)pyrimidin-5-yl]-6-(2-morpholinoethoxy)-1,3-benzothiazol-2-yl]urea]	2 µg/mL (≈ 4.11 µM)	2 µg/mL (≈ 4.11 µM)	–
CCNC(=O)Nc1nc2cc(-c3cnc([C@@H](C)O)nc3)cc(-c3ccc(OC)cn3)c2s1 [Compound 202, 1-ethyl-3-[5-[2-[(1R)-1-hydroxyethyl]pyrimidin-5-yl]-7-(5-methoxy-2-pyridyl)-1,3-benzothiazol-2-yl]urea]	≤ 1 µg/mL	–	≤ 2 µg/mL
